Measured values reported in ChEMBL document CHEMBL3259629, “Discovery and optimization of piperidyl-1,2,3-triazole ureas as potent, selective, and in vivo-active inhibitors of α/β-hydrolase domain containing 6 (ABHD6)” (J Med Chem, 2013).

Key:
Conditions in all cases: Neuro2a, 3 nM
[1] = target: Patatin-like phospholipase domain-containing protein 7 (Mus musculus) (UniProt A2AJ88)
Description: Inhibition of Pnpla7 in mouse Neuro2a cells at 3 nM after 4 hrs by ABPP-SILAC assay

[2] = target: T1, Lysosomal protective protein (Mus musculus) (UniProt P16675)
T1 sequence (whole entry): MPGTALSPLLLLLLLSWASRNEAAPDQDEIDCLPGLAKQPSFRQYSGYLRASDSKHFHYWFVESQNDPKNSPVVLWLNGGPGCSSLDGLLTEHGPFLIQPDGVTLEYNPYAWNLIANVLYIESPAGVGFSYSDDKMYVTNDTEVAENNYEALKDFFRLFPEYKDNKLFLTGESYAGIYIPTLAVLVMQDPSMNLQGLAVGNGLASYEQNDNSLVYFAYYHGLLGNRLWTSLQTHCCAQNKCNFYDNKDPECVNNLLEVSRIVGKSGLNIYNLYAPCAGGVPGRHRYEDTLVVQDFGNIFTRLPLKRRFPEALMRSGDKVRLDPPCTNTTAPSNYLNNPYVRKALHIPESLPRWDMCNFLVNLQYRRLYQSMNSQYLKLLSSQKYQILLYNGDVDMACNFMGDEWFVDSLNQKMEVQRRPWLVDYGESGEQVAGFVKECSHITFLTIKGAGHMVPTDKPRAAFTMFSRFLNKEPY
Description: Inhibition of Ctsa in mouse Neuro2a cells at 3 nM after 4 hrs by ABPP-SILAC assay

[3] = target: T2, Acyl-coenzyme A thioesterase 1 (Mus musculus) (UniProt O55137)
T2 sequence (whole entry): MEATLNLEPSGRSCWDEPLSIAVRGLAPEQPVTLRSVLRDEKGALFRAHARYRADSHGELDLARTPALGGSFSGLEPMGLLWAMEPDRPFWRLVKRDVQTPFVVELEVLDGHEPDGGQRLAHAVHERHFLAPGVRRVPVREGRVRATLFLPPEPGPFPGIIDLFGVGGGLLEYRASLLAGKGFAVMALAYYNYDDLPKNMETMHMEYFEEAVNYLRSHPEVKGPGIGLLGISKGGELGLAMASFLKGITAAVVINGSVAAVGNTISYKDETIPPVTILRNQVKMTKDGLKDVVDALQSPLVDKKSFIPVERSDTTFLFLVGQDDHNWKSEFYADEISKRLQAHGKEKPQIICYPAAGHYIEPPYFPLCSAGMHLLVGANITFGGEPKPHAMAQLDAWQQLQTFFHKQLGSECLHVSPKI
Description: Inhibition of Acot1 in mouse Neuro2a cells at 3 nM after 4 hrs by ABPP-SILAC assay

[4] = target: Dipeptidyl peptidase 9 (Mus musculus) (UniProt Q8BVG4)
Description: Inhibition of DPP9 in mouse Neuro2a cells at 3 nM after 4 hrs by ABPP-SILAC assay

[5] = target: T3, Protein ABHD13 (Mus musculus) (UniProt Q80UX8)
T3 sequence (whole entry): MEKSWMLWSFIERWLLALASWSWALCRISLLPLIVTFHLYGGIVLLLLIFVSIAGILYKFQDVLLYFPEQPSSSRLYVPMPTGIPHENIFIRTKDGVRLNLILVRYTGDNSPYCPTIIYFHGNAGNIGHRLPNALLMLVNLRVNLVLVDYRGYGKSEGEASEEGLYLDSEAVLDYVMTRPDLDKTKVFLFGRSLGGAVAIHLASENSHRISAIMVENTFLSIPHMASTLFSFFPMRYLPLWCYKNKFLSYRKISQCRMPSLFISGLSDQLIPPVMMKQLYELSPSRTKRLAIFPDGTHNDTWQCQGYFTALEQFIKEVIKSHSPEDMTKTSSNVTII
Description: Inhibition of Abhd13 in mouse Neuro2a cells at 3 nM after 4 hrs by ABPP-SILAC assay

[6] = target: T4, Rhomboid-related protein 4 (Mus musculus) (UniProt Q8BHC7)
T4 sequence (whole entry): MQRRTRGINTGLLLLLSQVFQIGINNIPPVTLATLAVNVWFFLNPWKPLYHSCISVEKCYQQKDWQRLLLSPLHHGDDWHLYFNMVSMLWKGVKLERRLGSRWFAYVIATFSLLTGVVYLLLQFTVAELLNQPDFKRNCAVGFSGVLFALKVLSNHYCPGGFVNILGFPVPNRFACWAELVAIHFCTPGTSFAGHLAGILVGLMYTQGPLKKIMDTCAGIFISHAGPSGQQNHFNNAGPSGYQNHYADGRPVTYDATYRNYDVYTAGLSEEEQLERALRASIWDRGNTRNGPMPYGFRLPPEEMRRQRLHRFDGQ
Description: Inhibition of Rhbdd1 in mouse Neuro2a cells at 3 nM after 4 hrs by ABPP-SILAC assay

[7] = target: Acyl-protein thioesterase 2 (Mus musculus) (UniProt Q9WTL7)
Description: Inhibition of Lypla2 in mouse Neuro2a cells at 3 nM after 4 hrs by ABPP-SILAC assay

[8] = target: Tripeptidyl-peptidase 2 (Mus musculus) (UniProt Q64514)
Description: Inhibition of Tpp2 in mouse Neuro2a cells at 3 nM after 4 hrs by ABPP-SILAC assay

[9] = target: T5, Serine hydrolase-like protein (Mus musculus) (UniProt Q9EPB5)
T5 sequence (whole entry): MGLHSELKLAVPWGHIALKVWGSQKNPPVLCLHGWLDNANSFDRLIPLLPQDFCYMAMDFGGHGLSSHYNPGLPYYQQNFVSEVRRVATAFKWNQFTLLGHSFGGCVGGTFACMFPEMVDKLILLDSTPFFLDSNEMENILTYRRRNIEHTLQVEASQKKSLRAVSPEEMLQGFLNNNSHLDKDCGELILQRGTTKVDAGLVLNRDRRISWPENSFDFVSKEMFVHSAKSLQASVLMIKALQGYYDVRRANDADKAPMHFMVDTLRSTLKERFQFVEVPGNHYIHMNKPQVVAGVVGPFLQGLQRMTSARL
Description: Inhibition of Serhl in mouse Neuro2a cells at 3 nM after 4 hrs by ABPP-SILAC assay

[10] = target: T6, Phosphatidylserine lipase ABHD16A (Mus musculus) (UniProt Q9Z1Q2)
T6 sequence (whole entry): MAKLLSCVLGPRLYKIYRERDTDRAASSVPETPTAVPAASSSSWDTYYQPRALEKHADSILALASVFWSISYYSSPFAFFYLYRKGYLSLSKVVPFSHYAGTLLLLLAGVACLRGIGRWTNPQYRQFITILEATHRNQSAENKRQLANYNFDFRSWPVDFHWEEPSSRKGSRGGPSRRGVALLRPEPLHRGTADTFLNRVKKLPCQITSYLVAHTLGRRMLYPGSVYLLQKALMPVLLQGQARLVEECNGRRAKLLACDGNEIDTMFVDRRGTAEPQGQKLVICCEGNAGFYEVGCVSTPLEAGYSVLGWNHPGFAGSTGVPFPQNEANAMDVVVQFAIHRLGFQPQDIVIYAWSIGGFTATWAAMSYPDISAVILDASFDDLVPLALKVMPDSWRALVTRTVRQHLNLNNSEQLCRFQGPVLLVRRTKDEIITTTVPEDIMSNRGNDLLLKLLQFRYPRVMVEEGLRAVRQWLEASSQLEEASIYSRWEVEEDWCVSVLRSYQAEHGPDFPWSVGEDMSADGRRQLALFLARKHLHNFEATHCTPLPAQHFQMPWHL
Description: Inhibition of Bat5 in mouse Neuro2a cells at 3 nM after 4 hrs by ABPP-SILAC assay

Measured: inhibition

Dipeptidyl peptidase 9 (Mus musculus), sequence (Q8BVG4 whole entry): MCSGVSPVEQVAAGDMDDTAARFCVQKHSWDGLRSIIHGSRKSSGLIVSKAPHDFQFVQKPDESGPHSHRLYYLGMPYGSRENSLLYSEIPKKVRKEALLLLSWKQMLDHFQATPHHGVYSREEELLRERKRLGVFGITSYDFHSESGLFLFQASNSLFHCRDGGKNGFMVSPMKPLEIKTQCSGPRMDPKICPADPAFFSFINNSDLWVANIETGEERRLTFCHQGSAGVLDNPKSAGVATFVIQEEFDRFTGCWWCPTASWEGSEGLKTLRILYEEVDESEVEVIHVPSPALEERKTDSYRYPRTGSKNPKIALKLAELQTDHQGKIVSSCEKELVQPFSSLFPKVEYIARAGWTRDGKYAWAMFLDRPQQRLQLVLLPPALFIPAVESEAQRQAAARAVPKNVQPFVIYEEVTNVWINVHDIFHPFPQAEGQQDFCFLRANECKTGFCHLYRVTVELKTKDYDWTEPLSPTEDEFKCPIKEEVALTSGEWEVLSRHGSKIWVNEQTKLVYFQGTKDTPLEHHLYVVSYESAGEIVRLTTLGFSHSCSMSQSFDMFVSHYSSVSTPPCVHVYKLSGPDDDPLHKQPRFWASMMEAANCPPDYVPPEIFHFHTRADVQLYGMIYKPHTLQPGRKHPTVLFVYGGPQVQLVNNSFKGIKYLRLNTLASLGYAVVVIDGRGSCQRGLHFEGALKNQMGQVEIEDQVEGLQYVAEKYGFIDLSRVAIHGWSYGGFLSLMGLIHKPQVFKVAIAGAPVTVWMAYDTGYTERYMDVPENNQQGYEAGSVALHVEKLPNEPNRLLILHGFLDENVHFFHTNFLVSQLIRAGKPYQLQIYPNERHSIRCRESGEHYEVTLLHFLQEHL
Tripeptidyl-peptidase 2 (Mus musculus), sequence (Q64514 whole entry): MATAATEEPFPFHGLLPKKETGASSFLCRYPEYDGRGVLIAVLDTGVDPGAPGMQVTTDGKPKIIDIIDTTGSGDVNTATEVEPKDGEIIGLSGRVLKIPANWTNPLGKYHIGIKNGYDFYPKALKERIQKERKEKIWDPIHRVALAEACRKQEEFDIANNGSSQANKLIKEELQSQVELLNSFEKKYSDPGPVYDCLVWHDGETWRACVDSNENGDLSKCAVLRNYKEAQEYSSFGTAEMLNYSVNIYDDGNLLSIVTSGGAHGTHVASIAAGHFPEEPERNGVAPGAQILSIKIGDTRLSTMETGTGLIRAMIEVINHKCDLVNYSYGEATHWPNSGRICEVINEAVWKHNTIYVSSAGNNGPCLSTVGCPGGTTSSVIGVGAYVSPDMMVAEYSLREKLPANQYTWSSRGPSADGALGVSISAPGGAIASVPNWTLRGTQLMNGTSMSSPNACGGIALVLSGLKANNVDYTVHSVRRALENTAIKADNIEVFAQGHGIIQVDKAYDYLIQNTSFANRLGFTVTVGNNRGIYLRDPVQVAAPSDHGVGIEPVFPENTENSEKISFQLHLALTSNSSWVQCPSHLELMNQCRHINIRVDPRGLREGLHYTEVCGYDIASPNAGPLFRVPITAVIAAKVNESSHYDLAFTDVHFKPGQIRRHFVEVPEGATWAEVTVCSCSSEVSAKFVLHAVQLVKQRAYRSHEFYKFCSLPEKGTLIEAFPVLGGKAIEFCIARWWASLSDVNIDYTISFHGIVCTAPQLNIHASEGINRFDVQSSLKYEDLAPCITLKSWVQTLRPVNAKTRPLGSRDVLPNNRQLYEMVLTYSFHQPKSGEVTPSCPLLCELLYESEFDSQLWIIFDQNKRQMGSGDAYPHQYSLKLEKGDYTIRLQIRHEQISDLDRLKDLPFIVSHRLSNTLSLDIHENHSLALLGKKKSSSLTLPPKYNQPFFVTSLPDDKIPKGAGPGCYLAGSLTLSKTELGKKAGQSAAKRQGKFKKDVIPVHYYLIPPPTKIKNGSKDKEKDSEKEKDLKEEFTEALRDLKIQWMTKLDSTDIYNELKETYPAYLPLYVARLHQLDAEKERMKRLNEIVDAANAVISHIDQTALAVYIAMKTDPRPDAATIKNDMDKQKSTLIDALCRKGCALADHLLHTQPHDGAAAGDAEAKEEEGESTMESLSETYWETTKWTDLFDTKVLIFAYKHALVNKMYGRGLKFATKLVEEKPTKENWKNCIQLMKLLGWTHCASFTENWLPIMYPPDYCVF
Acyl-protein thioesterase 2 (Mus musculus), sequence (Q9WTL7 whole entry): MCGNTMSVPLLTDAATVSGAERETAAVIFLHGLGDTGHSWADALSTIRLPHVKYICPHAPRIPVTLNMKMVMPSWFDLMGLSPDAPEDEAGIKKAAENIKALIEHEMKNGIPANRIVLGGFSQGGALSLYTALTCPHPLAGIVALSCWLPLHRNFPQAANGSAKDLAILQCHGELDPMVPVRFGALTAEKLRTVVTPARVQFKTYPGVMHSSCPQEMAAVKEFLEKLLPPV
Patatin-like phospholipase domain-containing protein 7 (Mus musculus), sequence (A2AJ88 whole entry, the tested form may be a part): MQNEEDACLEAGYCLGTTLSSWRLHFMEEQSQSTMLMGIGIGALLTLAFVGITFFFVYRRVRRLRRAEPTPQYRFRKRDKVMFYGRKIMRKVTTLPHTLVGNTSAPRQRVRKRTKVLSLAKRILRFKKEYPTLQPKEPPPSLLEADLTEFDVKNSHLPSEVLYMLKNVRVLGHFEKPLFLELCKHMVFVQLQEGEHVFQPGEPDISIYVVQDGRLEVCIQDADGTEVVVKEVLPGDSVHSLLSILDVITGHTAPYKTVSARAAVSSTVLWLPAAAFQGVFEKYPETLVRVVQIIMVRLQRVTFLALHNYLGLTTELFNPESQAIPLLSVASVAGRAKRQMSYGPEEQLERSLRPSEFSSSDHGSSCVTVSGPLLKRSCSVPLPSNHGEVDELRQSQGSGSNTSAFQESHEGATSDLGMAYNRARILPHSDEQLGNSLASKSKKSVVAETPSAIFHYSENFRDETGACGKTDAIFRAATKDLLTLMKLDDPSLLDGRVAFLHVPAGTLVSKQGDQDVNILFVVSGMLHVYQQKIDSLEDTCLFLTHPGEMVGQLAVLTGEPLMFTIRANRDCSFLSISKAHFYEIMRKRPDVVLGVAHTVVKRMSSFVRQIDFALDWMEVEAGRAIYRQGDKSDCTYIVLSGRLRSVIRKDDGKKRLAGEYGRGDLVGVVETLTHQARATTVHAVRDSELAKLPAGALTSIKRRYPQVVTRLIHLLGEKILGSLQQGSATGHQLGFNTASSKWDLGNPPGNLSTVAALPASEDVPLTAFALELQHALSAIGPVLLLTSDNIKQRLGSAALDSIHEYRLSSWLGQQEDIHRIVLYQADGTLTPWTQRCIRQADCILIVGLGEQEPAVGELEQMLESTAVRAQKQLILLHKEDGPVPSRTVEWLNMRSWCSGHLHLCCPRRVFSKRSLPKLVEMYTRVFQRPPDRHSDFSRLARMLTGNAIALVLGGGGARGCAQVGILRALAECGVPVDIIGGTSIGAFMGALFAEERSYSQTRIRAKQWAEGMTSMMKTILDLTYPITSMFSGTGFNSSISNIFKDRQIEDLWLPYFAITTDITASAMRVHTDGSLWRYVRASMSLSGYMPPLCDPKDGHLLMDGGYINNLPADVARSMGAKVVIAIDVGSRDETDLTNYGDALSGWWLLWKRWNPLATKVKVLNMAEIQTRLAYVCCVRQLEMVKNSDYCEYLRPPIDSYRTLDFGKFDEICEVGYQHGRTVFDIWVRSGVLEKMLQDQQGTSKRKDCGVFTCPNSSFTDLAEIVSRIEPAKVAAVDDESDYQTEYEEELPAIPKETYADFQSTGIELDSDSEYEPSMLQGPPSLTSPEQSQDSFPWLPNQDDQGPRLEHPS

O=C(N1CCCCC1c1ccccc1)n1cc(-c2ccc(-c3cccc(CO)c3)cc2)nn1 (racemic)
< 50%: all assays above

O=C(c1cccc(-c2ccc(-c3cn(C(=O)N4CCCCC4c4ccccc4)nn3)cc2)c1)N1CCCCC1 (racemic)
< 50%: all assays above

O=C(O)c1cccc(-c2ccc(-c3cn(C(=O)N4CCCCC4Cc4ccccc4)nn3)cc2)c1 (racemic)
< 50%: all assays above
